Experimental data: US20010031282A1, “Process for the manufacture of a pulverous preparation” (ROCHE VITAMINS INC., priority 1996, published 2001)
Read-outs that look alike come from different tables or passages of the source. One block for each molecule: values may come before it.

Columns and labels:
[1] = Solubility of pharmaceuticals in carbon dioxide (Example 7); assay type: physicochemical
Protocol: (§1) A comparison of solubility's of a number of pharmaceuticals was performed in the following way:
(§2) Approximately 3-5 g of the pharmaceutical was slightly compressed in an uniaxial press to avoid the formation of a stable suspension. The so compressed powder was given in a pressure chamber with a sapphire glass (30 ml volume). The temperature of the pressure chamber was controlled by water bath. Then the pressure in the chamber was increased using the corresponding gas and equilibrated for 1-3 hours. After equilibration a defined sample (1.0 ml) was drawn under constant pressure and temperature conditions using a high pressure line with a defined volume. […] The sample container was afterwards rinsed with the same liquid to collect the residues of the substance in the sample container.
(§3) The solubility (G/V) was determined either by HPLC or gravimetrically after removing the liquid.

[2] = Solubility of pharmaceuticals in dimethylether (Example 7); assay type: physicochemical
Protocol: as §1, §2, §3

[3] = Protocol: 250 g of solid trans-apoester (Ethyl-8′-apo-β-carotene-8′oate) were charged into an autoclave. The autoclave was adjusted to a temperature of 67° C. […] 1003 g of the solution was sprayed into a spray-tower via a nozzle having a bore hole of 0.2 mm. The flow rate was 84 g/min. During the spray procedure the pressure in the autoclave was maintained at 150×10^5 Pa by supplementation with fresh dimethyl ether. The sample composition was determined gravimetrically.
[4] = Solubility / miscibility of β-carotene in dimethyl ether; assay type: physicochemical
Protocol: It has now been discovered that dimethyl ether is useful as a solvent for β-carotene in processes such as those described above where the material to be produced as a powder is dissolved in a solvent at high temperature and pressure, and then the pressure is reduced whereby the solubility of the dissolved material decreases to the point where it precipitates from the solution as a fine powder. […] From PCT Patent Publication WO 96/15133 it is already known that dimethyl ether is an excellent solvent at elevated temperature and pressure conditions. The solubility of β-carotene in liquid dimethyl ether is strongly temperature dependent. About 1.1 wt. % of β-carotene dissolve in liquid dimethyl ether (vapour pressure 4 bar) at 25° C. At 60° C. (vapour pressure 15 bar) already 2.7 wt. % dissolve. At higher pressures (up to 300 bar) the solubility is practically not increased in this temperature region.
Thus, a homogeneous solution of β-carotene and dimethyl ether exists at 105° C. and pressures above 140 bar.
250 g of solid trans-β-carotene were charged into an autoclave having a volume of 1 l. The autoclave was thermostatted electrically to a temperature of 105° C. 500 g of dimethyl ether (cosmetic grade) were pumped into the autoclave. Dissolution of the carotene took about 60 minutes, with shaking of the autoclave. The pressure was then 175×10^5 Pa. A sample was taken at both the top and bottom lids of the autoclave. The sample compositions were determined gravimetrically. Both samples gave a carotene content of 33 wt. % and a dimethyl ether content of 67 wt. %, i.e. a homogeneous phase of carotene and dimethyl ether was present in the autoclave.

[5] = Stability of β-carotene in liquid solutions with highly compressible gases; assay type: physicochemical; settings: temperatures in the region of its melting point of 180° C.
Protocol: In analogy to the procedure described in WO 95/21688 it has been investigated whether β-carotene forms liquid solutions with the mentioned and other highly compressible substances. β-Carotene forms liquid solutions with the gases only at temperatures in the region of its melting point of 180° C.

[6] = carbon dioxide or dinitrogen monoxide, pressures up to 500 bar; cited from earlier work
[7] = 500 bar, cited from earlier work
[8] = cited from earlier work
[9] = Volume weighted particle size distribution after spraying (Examples 8, 9); assay type: physicochemical; settings: dissolved at 40° C., 200×10^5 Pa, sprayed into second autoclave
Protocol: 100 g of solid Orlistat in a container with two sinter plates was charged into an autoclave having a volume of 6 l. The autoclave was kept at a temperature of 40° C. with a water bath. Then the autoclave was filled with gas up to a pressure of 200×10^5 Pa and equilibrated for 90 min. The autoclave was connected to a second autoclave via a heated high pressure line, kept at 40° C. This second autoclave has a volume of 4 l. The dissolved Orlistat was sprayed into this second autoclave. Thereby the pressure of the first autoclave was kept constant at 200×10^5 Pa by pumping in additional gas. The resulting volume weighted particle size distribution is as follows: 100 g of solid Saquinavir in a container with two sinter plates was charged into an autoclave having a volume of 6 l. The autoclave was kept at a temperature of 40° C. with a water bath. Then the autoclave was filled with gas up to a pressure of 200×10^5 Pa and equilibrated for 90 min. The autoclave was connected to a second autoclave via a heated high pressure line, kept at 40° C. This second autoclave has a volume of 4 l. The dissolved Saquinavir was sprayed into this second autoclave. Thereby the pressure of the first autoclave was kept constant at 200×10^5 Pa by pumping in additional gas. The resulting volume weighted particle size distribution is as follows: […]

SMILES: COc1ccccc1Oc1c(NS(=O)(=O)c2ccc(C(C)(C)C)cc2)nc(-c2ncccn2)nc1OCCO [Bosentan]
solubility (CO2) ([1]; 45° C./200×10^5 Pa): <0.1 % (g/V) | solubility (CH3—O—CH3) ([2]; 45° C./200×10^5 Pa): 9.0 % (g/V)

SMILES: O=C(NCCN1CCOCC1)c1ccc(Cl)cc1 [Moclobemide]
solubility (CO2) ([1]; 45° C./200×10^5 Pa): 0.35 % (g/V) | solubility (CH3—O—CH3) ([2]; 45° C./200×10^5 Pa): 3.7 % (g/V)

SMILES: CC(C)(C)NC(=O)[C@@H]1C[C@@H]2CCCC[C@@H]2CN1C[C@@H](O)[C@H](Cc1ccccc1)NC(=O)[C@H](CC(N)=O)NC(=O)c1ccc2ccccc2n1 [Saquinavir]
solubility (CO2) ([1]; 45° C./200×10^5 Pa): <0.1 % (g/V) | solubility (CH3—O—CH3) ([2]; 25° C./100×10^5 Pa): >10 % (g/V) | particle size, 10% of the particles (volume weighted) [9]: ≦0.4 μm | particle size, 50% of the particles (volume weighted) [9]: ≦0.9 μm | particle size, 90% of the particles (volume weighted) [9]: ≦1.8 μm

SMILES: CCCCCCCCCCC[C@@H](C[C@@H]1OC(=O)[C@H]1CCCCCC)OC(=O)[C@H](CC(C)C)NC=O [Orlistat]
solubility (CO2) ([1]; 30° C./100×10^5 Pa): 0.6 % (g/V) | solubility (CH3—O—CH3) ([2]; 20° C./4.5×10^5 Pa): 17.8 % (g/V) | particle size, 10% of the particles (volume weighted) [9]: ≦0.40 μm | particle size, 50% of the particles (volume weighted) [9]: ≦1.02 μm | particle size, 90% of the particles (volume weighted) [9]: ≦2.43 μm

Second part, led by results:

solubility (CO2) ([1]; 45° C./200×10^5 Pa): 0.3 % (g/V) | solubility (CH3—O—CH3) ([2]; 45° C./200×10^5 Pa): 6.0 % (g/V)
SMILES: CC1=C(/C=C/C(C)=C/C=C/C(C)=C\C(=O)O)C(C)(C)CCC1 [Isotretionin]

content of the apoester in the sprayed dimethyl ether solution (gravimetric) ([3]; 67° C., 150×10^5 Pa, equilibrated 30 minutes): 10 wt % | particle size ([3]; Example 6, sprayed from dimethyl ether, 67° C., 150×10^5 Pa, nozzle 0.2 mm): 9 μm | mean particle size ([3]; Example 10, powder with gelatin/sucrose matrix, starch catch process): 0.23 μm
SMILES: CCOC(=O)/C(C)=C/C=C/C(C)=C/C=C/C=C(C)/C=C/C=C(C)/C=C/C1=C(C)CCCC1(C)C [apoester, Ethyl-8′-apo-β-carotene-8′oate]

solubility in liquid dimethyl ether ([4]; 25° C., vapour pressure 4 bar): About 1.1 wt. % | solubility in liquid dimethyl ether ([4]; 60° C., vapour pressure 15 bar): 2.7 wt. % | carotene content of the homogeneous dimethyl ether phase (gravimetric) ([4]; 105° C., 175×10^5 Pa, Example 1): 33 wt. % | miscibility with dimethyl ether ([4]; 105° C., pressures above 140 bar): miscible without limitation in any ratio
SMILES: CC1=C(/C=C/C(C)=C/C=C/C(C)=C/C=C/C=C(C)/C=C/C=C(C)/C=C/C2=C(C)CCCC2(C)C)C(C)(C)CCC1 [β-carotene]
stability in liquid solution with the gases [5]: isomerizes or decomposes after a very short time | β-carotene concentration in supercritical gases [6]: 0.01 wt. % | solubility in carbon dioxide ([7]; 35° C.): 0.00049 wt. % | solubility in carbon dioxide ([7]; 55° C.): 0.0016 wt. % | dissolution in liquid sulphur dioxide ([8]; 15° C.): 0.59 wt. % | highest concentration in supercritical fluids (ethylene) ([8]; ethylene, 55° C., 500 bar): 0.035 wt. % | concentration in the solvents which are liquid at room temperature ([8]; liquid solvents except CS2): below 1 wt. % | solubility in CS2 ([8]; room temperature): 3.5 wt. %
